# Columns and labels:
# AA-2 leukemia cells = experiment: cytocidal effect in combination with ascorbate; conditions: for protection against apoptosis-inducing action: 160 μM ascorbate, 18 hr of drug exposure; for cell number Day 1 / cell number Day 2: alone or with ascorbate 160 μM; for cell number Day 1: 18 hr; for cell number Day 2: 42 hr
# Method: Because of the in vitro reactivity of the nitroso group of INOBA with both ascorbate and GSH, the apoptosis-inducing effect of NOBA with the action of the prodrug INO2 BA in the presence of ascorbate, added simultaneously with both drugs was compared.
# AA-2 cells were seeded at a density of 0.2×10^6 cells/ml. Drugs and/or sodium ascorbate were added at the time of seeding, and cells were counted by hemacytometer after incubation (37° C., 5% CO^2) for 18 hr (Day 1) and for 42 hr (Day 2). Viability was evaluated by Trypan Blue exclusion.
# Molt-4 cells = experiment: time course of cell killing alone and with BSO, Molt-4; type: cell-based; conditions: Molt-4, 2-3 day period; 4 μM drug, 1 mM BSO
# Method: (§1) Molt 4-cells were seeded at a density of 0.05×10^6 cell/ml in the recommended growth medium in the absence or the presence of drugs as indicated. Cells were incubated at 37° C. in a 5% CO2 atmosphere and proliferation was monitored in 14 hr. by cell counting in a hemacytometer. .smallcircle., untreated control; .circle-solid., treated with 4 μM 4-iodo-3-nitrobenzoic acid; .gradient., treated with 1 mM BSO; .tangle-soliddn., treated with 4 μM-iodo-3-nitrobenzoic acid and 1 mM BSO; .quadrature., treated with 4 μM 4-INO2 BA; .box-solid., treated with 1 mM BSO; .gradient., treated with 4 μM INO2 BA and 1 mM BSO. L-1210 cells were seeded at a density of 0.05×10^6 cells/ml either from untreated stock suspensions or from 24-hr. pretreated (0.2×10^6 cells/ml) suspensions. .smallcircle., untreated control; .circle-solid., treated with […] NOBA; .gradient., treated with 1 mM BSO; .tangle-soliddn., 24-hr pretreatment with 1 mM BSO then treated with 4 μM NOBA.
# (§2) A time course of the cell killings by 4-iodo-3-nitrobenzoic acid, INO2 BA and NOBA, each alone and in combination with BSO was obtained. Molt-4 cells were seeded at a density of 0.05×10^6 cells/ml in the recommended growth medium in the absence or presence of drugs as indicated in FIG. 3. Drugs were added to the wells immediately after seeding from 10-40 mM stock solution in DMSO. BSO was added from a 100 mM aqueous stock solution. Cells were incubated at 37° C. in a 5% CO2 atmosphere and proliferation was monitored in 14 hours by cell counting in a hemacytometer.
# L-1210 cells = experiment: time course of cell killing alone and with BSO, L-1210; type: cell-based, murine; conditions: L-1210, 2-3 day period; 1 mM BSO
# Method: as §1, §2
# SIVmac in CEM ×174 cells = experiment: SIVmac replication in CEM ×174 cells, reverse transcriptase assay; type: cell-based, SIV; conditions: for effect on SIVmac replication in pre-infected cells: cells pre-infected one day prior to treatment
# Method: CEM ×174 cells (3×10^5 /ml) were infected with 3.75 TCID50 /ml (50% tissue culture infectious dosage per ml of cell suspension) stock solution of SIVmac239 or virus isolates from SIVmac239-infected rhesus macaques on day 0. Uniform infection of cells was ensured by the infection of one cell population only per virus preparation. Three days post-infection, the cells were distributed (500 μl/well) into individual wells of a 24-well plate. Fresh medium containing INO2 BA concentrations ranging from 0 to 300 μM and/or BSO concentrations ranging from 0 to 0.25 mM were added to establish final 1-ml reaction volumes, and the cultures were further incubated for 4 days. The wells were then replenished with fresh CEM ×174 cells (3×10^5 /ml), INO2 BA and/or BSO were re-added at the same concentrations as in the original incubates, and incubation was continued for an additional 3 days. This procedure intends to mimic conditions of in vivo chemotherapy. Cell viability and virus titers in the supernatant were determined on day 10 (3 days after the addition of new cells) by the tetrazolium (MTT) method of Hansen et al., J. Immunol. Methods 119:208-210 (1982) and by the SIV p27 and reverse transcriptase (RT) assays described by Chuang et al., FEBS Lett. 326:140-144 (1993), respectively.
# To evaluate the activity of SIV reverse transcriptase, 10 μl of infected cell supernatant was added to a reaction mixture containing 50 mM Tris-HCl (pH 8.0), 5 mM MgCl2, 10 mM dithiothreitol, 20 mM KCl, and 1% Triton X-100 in a total volume of 50 μl. Poly(rA):oligo (dT)12-18 was present at 100 μg/ml and 2.4 μM [^3 H]TTP was used. The reaction mixtures were incubated at 37° C. for 1 hr and the TCA-precipitableradioactivity was filtered onto nitrocellulose filters which were then washed, dried and counted.
# The effect of INO2 BA on SIVmac replication in CEM ×174 cells that were pre-infected with virus for one day prior to treatment with INO2 BA are shown in FIG. 6. The cell culture and SIV reverse transcription assay were performed as described in Example XIV.
# [1] = tested on: SIV 22803 (AZT-resistant); experiment: AZT-resistant SIV propagation (syncytia formation), SIV 22803; type: cell-based; conditions: for Syncytia: BSO 0
# Method: CEM × 174 (3 × 10^5 /ml) were infected with equal doses o
# SIVmac239 or virus isolates from SIVmac239infected rhesus macaques (MMU
# 23686, 22803). Three days postinfection, INO2 BA concentrations
# ranging from 0 to 300 μM with or without BSO were added, and incubated
# for an additional 3 days. Cell cultures were then examined for syncytia
# formation. The number of syncytia in cell cultures was counted in
# arbitration fields under 40× magnification and scored as follows: […]
# [2] = 42 h, read-out: dead cells Day 2
SMILES,protection against apoptosis-inducing action (AA-2 leukemia cells),cytotoxicity at 16 µM (AA-2 leukemia cells; [2]) [%],cell number Day 1 (AA-2 leukemia cells; INO2 BA 16 μM) [mL⁻¹],cell number Day 2 (AA-2 leukemia cells; INO2 BA 16 μM) [mL⁻¹],effect on cell proliferation (Molt-4 cells),effect on cell proliferation (L-1210 cells),"reverse transcriptase activity (SIVmac in CEM ×174 cells; SIV-infected CEM ×174 cells, FIG. 6)",effect on SIVmac replication in pre-infected cells (SIVmac in CEM ×174 cells),Syncytia ([1]; INO2 BA 25 μM),Syncytia ([1]; INO2 BA 50 μM),Syncytia ([1]; INO2 BA 100 μM),Syncytia ([1]; INO2 BA 200 μM),Syncytia ([1]; INO2 BA 300 μM),"IC100 ([1]; Simian immunodeficiency virus, 72 h, read-out: INO2 BA concentration abrogating cell fusion (syncytia)) [µM]",syncytia-blocking concentration of INO2 BA ([1]; with 0.05 mM BSO) [µM],cytotoxicity at 32 µM (AA-2 leukemia cells; [2]) [%],cell number Day 1 (AA-2 leukemia cells; NOBA 32 μM) [mL⁻¹],cell number Day 2 (AA-2 leukemia cells; NOBA 32 μM) [mL⁻¹]
"NC(=O)c1ccc(I)c([N+](=O)[O-])c1 [INO2 BA, 4-iodo-3-nitrobenzamide]",did not prevent apoptosis,40,250000,450000,no significant effect,no significant effect,greatly depressed,effective even when incubated with cells that have been infected,++ (10-20),++ (10-20),++ (10-20),- (0),- (0),> 100,25,,,
"NC(=O)c1cccc(N=O)c1 [NOBA, 3-nitrosobenzamide]",completely protected,,,,no significant effect,no significant effect,,requires pre-incubation with cells prior to viral infection,,,,,,,,50,290000,370000

# From patent US5877185A, “Synergistic compositions useful as anti-tumor agents” (priority 1995, dated 1999)
